Test results as given in US20220041641A1, “QUATERNARY AMMONIUM SALTS AS INHIBITORS OF TRIMETHYLAMINE PRODUCTION” (Senda Biosciences, Inc., priority 2018, published 2022).

Legend:
[1] = in vivo; design: species or system Sprague-Dawley rats; conditions: Sprague-Dawley, rat
Experimental: Sprague-Dawley rats (three rats per compound) were treated with a single intravenous (IV) 1 mg/kg dose or orally (PO) a single 10 mg/kg dose. Plasma concentrations of the conjugates were determined by LCMS at 5 minutes, 15 minutes, 30 minutes, 1 hour, 2 hours, 4 hours, 8 and 24 hours post compound administration. […] In addition, the plasma exposure and bioavailability of the active agent of was lower when dosed as a conjugate instead of the active agent alone.

[2] = target: CutC from Proteus mirabilis (Proteus mirabilis, UniProt B4EYG1); experiment: Cell-based assay for TMA production from a native producer (P. mirabilis); conditions: d9-TMA from 1 mM d9-choline, 5 h, 37° C.; value 10 given when no fit or % TMA remaining at 10 μM higher than 15%; read-out: Average IC50 Whole cell P. mirabilis
Method in brief: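 Overnight anaerobic cultures of P. mirabilis or C. sporogenes, grown in BHI with 1 mM choline, were diluted and given 1 mM (trimethyl-d9)-choline plus compound at 10 μM final. After 5 h at 37° C., d9-TMA was quantified by LCMS.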

[3] = tested on: enzymatic activity in fecal matter; experiment: Inhibition of enzymatic activity in fecal matter; type: cell-based; conditions: d9-choline 1 mM, 16 hours at 37° C., anaerobic, d9-TMA by LCMS
Experimental: Inhibition of enzymatic activity in fecal matter was determined by adding a substrate (d9-choline, 1 mM final concentration) and a compound in a range of concentrations in order to determine an IC50. After incubation for a designated 16 hours at 37° C. in anaerobic conditions, samples were be prepared for LCMS analysis, and the amount of d9-TMA produced was determined using LCMS analysis as in the Examples above.

[4] = Pharmacokinetic study of colon contents and plasma after oral dose of conjugate; type: in vivo, male C57B3L/6 mice; conditions: male
Experimental: To confirm that the active agent component of the conjugate is released in the gastrointestinal tract, a pharmacokinetic study was conducted in male C57B3L/6 mice examining conjugate and active agent of concentrations in both the colon contents and plasma after oral dose of conjugate. Conjugate and active agent of were quantified by LCMS at 0 (pre-dose), 0.25, 0.5, 1, 2, 4, 6, 8, 12, and 24 hours post-dose of compound.

[5] = tested on: CutC/D enzyme; experiment: Acute mouse model (plasma TMAO on choline diet); type: in vivo, male C57BL/6 mice; conditions: Table 4f
Method in brief: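 Male C57BL/6 mice fed a diet with 1.0% choline (g/g) received compound in water by oral gavage once daily on days 1–3. Plasma taken 20 h after the last dose was protein-precipitated and TMAO quantified by LC-MS/MS against a 0.05-100 μM d9-TMAO calibration curve in control plasma.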

[6] = Caco-2 permeability assay; type: in vitro ADME; conditions: human, Caco-2, pH 7.4
Experimental: Preparation of Caco-2 Cells: 50 μL and 25 mL of cell culture medium were added to each well of the Transwell insert and reservoir, respectively. The HTS transwell plates were incubated at 37° C., 5% CO2 for 1 hour before cell seeding. […] Cell culture medium was replaced every other day, beginning no later than 24 hours after initial plating.
Assessment of Cell Monolayer Integrity: Medium was removed from the reservoir and each Transwell insert and replaced with prewarmed fresh culture medium. Transepithelial electrical resistance (TEER) across the monolayer was measured using Millicell Epithelial Volt-Ohm measuring system (Millipore, USA). The Plate was returned to the incubator once the measurement was done. The TEER value was calculated according to the following equation: […]
Preparation of Solutions: 2 mM stock solutions in DMSO of control compounds were prepared and diluted with HBSS (10 mM HEPES, pH 7.4) to get 10 μM working solution. 0.2 mM stock solutions of test compounds in DMSO were prepared and diluted with HBSS (10 mM HEPES, pH 7.4 with 0.5% BSA) to get 1 μM working solution. Metoprolol, erythromycin and cimetidine were used as control compounds.
The Caco-2 plate was removed from the incubator. The monolayer was washed twice with pre-warmed HBSS (10 mM HEPES, pH 7.4). The plate was incubated at 37° C. for 30 minutes. To determine the rate of drug transport in the apical to basolateral direction, 125 μL of the working solution was added to the Transwell insert (apical compartment). A 50 μL sample was transferred immediately from the apical compartment to 200 μL of acetonitrile containing IS (100 nM alprazolam, 200 nM Caffeine and 100 nM tolbutamide) in a new 96-well plate as the initial donor sample (A-B) and it was vortexed at 1000 rpm for 10 minutes. The wells in the receiver plate (basolateral compartment) were filled with 235 μL of transport buffer. To determine the rate of drug transport in the basolateral to apical direction, 285 μL of the working solution were added to the receiver plate wells (basolateral compartment). A 50 μL sample was transferred immediately from the basolateral compartment to 200 μL of acetonitrile containing IS (100 nM alprazolam, 200 nM Caffeine and 100 nM tolbutamide) in a new 96-well plate as the initial donor sample (B-A) and it was vortexed at 1000 rpm for 10 minutes. The Transwell insert (apical compartment) was filled with 75 μL of transport buffer. The apical to basolateral direction and the basolateral to apical direction need to be done at the same time. The plates were incubated at 37° C. for 2 hours. At the end of the incubation, 50 μL samples from donor sides (apical compartment for Ap→Bl flux, and basolateral compartment for B1→Ap) and receiver sides (basolateral compartment for Ap→Bl flux, and apical compartment for B1→Ap) were transferred to wells of a new 96-well plate, followed by the addition of 4 volume of acetonitrile containing IS (100 nM alprazolam, 200 nM Caffeine and 100 nM tolbutamide). Samples were vortexed for 10 minutes, 50 μL samples were transferred to wells of a new 96-well plate, followed by the addition of 50 μL Hepes and 200 μL IS. All samples were vortexed for 10 minutes, and then centrifuged at 3,220 g for 40 minutes. An aliquot of 150 μL of the supernatant was mixed with an appropriate volume of ultra-pure water before LC-MS/MS analysis.
Apparent permeability (Papp) can be calculated for drug transport assays using the following equation: […]
Papp is apparent permeability (cm/s×10^−6);
Papp (B-A) indicates the apparent permeability coefficient in basolateral to apical direction, and
Papp (A-B) indicates the apparent permeability coefficient in apical to basolateral direction.

Sequence of CutC from Proteus mirabilis (B4EYG1 entry or part of it): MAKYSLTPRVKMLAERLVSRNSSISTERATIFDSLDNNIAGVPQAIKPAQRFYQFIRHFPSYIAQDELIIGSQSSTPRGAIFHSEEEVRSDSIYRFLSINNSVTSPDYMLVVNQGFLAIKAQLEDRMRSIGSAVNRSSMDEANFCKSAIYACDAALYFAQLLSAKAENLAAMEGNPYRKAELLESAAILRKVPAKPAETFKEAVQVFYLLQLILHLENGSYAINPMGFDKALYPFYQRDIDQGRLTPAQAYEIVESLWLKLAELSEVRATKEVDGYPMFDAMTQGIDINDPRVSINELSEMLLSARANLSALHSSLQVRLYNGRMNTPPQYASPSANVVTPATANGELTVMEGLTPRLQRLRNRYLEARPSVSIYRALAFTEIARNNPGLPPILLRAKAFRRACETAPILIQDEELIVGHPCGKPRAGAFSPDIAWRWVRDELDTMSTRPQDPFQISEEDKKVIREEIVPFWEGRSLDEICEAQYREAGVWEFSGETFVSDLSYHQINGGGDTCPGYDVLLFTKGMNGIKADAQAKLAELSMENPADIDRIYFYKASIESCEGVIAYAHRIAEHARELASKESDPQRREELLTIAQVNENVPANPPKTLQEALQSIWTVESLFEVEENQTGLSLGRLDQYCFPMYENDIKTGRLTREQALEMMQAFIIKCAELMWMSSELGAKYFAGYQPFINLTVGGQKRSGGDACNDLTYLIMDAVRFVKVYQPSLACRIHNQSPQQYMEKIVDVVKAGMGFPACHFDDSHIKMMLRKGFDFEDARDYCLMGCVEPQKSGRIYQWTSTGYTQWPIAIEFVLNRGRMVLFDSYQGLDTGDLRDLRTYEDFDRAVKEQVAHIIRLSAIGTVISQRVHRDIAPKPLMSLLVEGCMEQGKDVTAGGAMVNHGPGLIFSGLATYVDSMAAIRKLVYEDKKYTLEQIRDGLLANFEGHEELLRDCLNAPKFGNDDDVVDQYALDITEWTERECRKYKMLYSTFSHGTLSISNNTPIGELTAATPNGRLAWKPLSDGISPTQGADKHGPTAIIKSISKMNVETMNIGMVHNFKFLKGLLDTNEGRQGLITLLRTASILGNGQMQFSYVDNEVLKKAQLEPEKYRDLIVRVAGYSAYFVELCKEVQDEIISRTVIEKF
Sequence of CutC from Proteus mirabilis (B4EYG0 entry or part of it, further chain): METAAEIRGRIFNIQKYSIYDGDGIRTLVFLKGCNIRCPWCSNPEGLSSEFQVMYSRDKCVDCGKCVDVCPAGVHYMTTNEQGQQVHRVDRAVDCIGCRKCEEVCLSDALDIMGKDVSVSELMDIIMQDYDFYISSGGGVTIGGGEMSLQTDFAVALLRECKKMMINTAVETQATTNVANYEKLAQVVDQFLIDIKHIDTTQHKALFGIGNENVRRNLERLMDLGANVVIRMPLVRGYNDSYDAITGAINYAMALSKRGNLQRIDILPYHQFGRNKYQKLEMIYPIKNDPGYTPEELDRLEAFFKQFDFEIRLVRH

SMILES | Cmax ([1]; iv, 1 mg/kg) [nM] | IC50 [2] [µM] | IC50 [3] [µM] | Cmax ([1]; po, 10 mg/kg) [nM] | bioavailability ([1]; po, 10 mg/kg) [%] | Cmax ([4]; C57B3L/6, mouse colon contents after oral dose of conjugate, compound measured = conjugate dosed, read-out: Colon Cmax) [nM] | Cmax ([4]; C57B3L/6, mouse plasma after oral dose of conjugate, compound measured = conjugate dosed, read-out: Plasma Cmax) [nM] | % change from vehicle control + choline diet ([5]; 3.70 mg/kg oral gavage days 1-3) [%] | Mean plasma TMAO ([5]; 3.70 mg/kg oral gavage days 1-3, plasma 20 h after last gavage) [µM] | % change from vehicle control + choline diet ([5]; 11.0 mg/kg oral gavage days 1-3) [%] | Mean plasma TMAO ([5]; 11.0 mg/kg oral gavage days 1-3, plasma 20 h after last gavage) [µM] | % change from vehicle control + choline diet ([5]; 36.6 mg/kg oral gavage days 1-3) [%] | Mean plasma TMAO ([5]; 36.6 mg/kg oral gavage days 1-3, plasma 20 h after last gavage) [µM] | % F ([1]; po, 10 mg/kg) [%] | Papp A→B at 2 h, 1 µM [6] [×10⁻⁶ cm/s] | Papp B→A at 2 h, 1 µM [6] [×10⁻⁶ cm/s] | Cmax ([4]; C57B3L/6, mouse, in vivo, po) [nM]
CC(=O)OC[C@@H]1O[C@H](OCC[N+](C)(C)CCl)[C@@H](OC(C)=O)[C@H](OC(C)=O)[C@H]1OC(C)=O (stereo in doubt) [Compound 78, N-(chloromethyl)-N,N-dimethyl-2-(((2S,3S,4R,5S,6S)-3,4,5-triacetoxy-6-(acetoxymethyl)tetrahydro-2H-pyran-2-yl)oxy)ethan-1-aminium Iodide] | 6 | ≥ 10 | 0.39 | – | – | – | – | – | – | – | – | – | – | – | – | – | –
C[N+](C)(CF)CCO[C@@H]1O[C@H](CO)[C@@H](O)[C@H](O)[C@H]1O.[Cl-] [Compound 98, (fluoromethyl)dimethyl(2-{[(2R,3R,4S,5S,6R)-3,4,5-trihydroxy-6-(hydroxymethyl)oxan-2-yl]oxy}ethyl)azanium Chloride] | 23600 | – | – | 306 | 0.72 | 21800 | 1300 | −8 | 29.7 | 6 | 34.3 | −69 | 10.1 | – | – | – | –
CC(=O)OC[C@@H]1O[C@H](OCC[N+](C)(C)CF)[C@@H](OC(C)=O)[C@H](OC(C)=O)[C@H]1OC(C)=O (stereo in doubt) [Compound 79, N-(fluoromethyl)-N,N-dimethyl-2-(((2S,3S,4R,5S,6S)-3,4,5-triacetoxy-6-(acetoxymethyl)tetrahydro-2H-pyran-2-yl)oxy)ethan-1-aminium Iodide] | 1 | ≥ 10 | 1.17 | 50 | – | – | – | – | – | – | – | – | – | – | – | – | –
CC(=O)OCC1OC(OCC[N+](C)(C)CF)C(OC(C)=O)C(OC(C)=O)C1OC(C)=O.[I-] (stereo in doubt) [Compound 79, N-(fluoromethyl)-N,N-dimethyl-2-(((2S,3S,4R,5S,6S)-3,4,5-triacetoxy-6-(acetoxymethyl)tetrahydro-2H-pyran-2-yl)oxy)ethan-1-aminium Iodide] | 13600 | – | – | 260 | 2.16 | – | – | – | – | – | – | – | – | 1.60 | 0.214 | 0.255 | 5
